Results: paper PMC8345219 (Cancers, 2021)
Entries after “also recorded” stand apart in the source; their conditions may differ. *1 amine or outer side, *2 acyl side, *3 side chain or, on linkers, in order; H or OH if unused. Where a SMILES comes first, the peptide text is derived from it. Bridges are numbered along the chain shown (N, C = ends). Primed or numbered codes have the meaning given here. Where no end group is shown, it is not given here. [ ]: non-standard residue; d: D form. The star is where a group is joined. Tam = 6-carboxy tetramethylrhodamine, CN(C)c1ccc2c(-c3cc(C(=O)*)ccc3C(=O)[O-])c3ccc(N(C)C)cc3[o+]c2c1; X1 = CN(C)c1ccc2c(c1)Oc1cc(N(C)C)ccc1C21OC(=O)c2ccc(C(=O)*)cc21; EG(4) = polyethylene glycol with four ethylene glycol units; PEG4 = NCCOCCOCCOCCOCCC(=O)O; d(hCys) = N[C@H](CCS)C(=O)O; hCys = N[C@@H](CCS)C(=O)O; CH2 = C([*:1])[*:2]

Experiments:
[1] = Investigation of plasma stability (Tam-labeled peptides, RP-HPLC); assay type: in vitro ADME; conditions: Tam-modified peptides, 10^−5 M in human blood plasma, 37 °C; one-phase decay
Experimental: Investigation of peptide stability in blood plasma was carried out as described previously [22]. Tam-labeled peptides were dissolved in human blood plasma at a concentration of 10^−5 M and incubated at 37 °C and 250 rpm. Samples taken at the respective time points were added to a solution of 0.1% SDS in ACN/EtOH (1:1). After incubation at −20 °C for 20 min, the supernatant was transferred to a new tube and incubated again at −20 °C for at least 3 h. […] Peaks were integrated, and the peak containing the intact peptide was normalized to the sample taken at t = 0 min (100%). Plasma half-life was determined using one-phase decay in Prism 5 (GraphPad, San Diego, CA, USA).

hCMKLR1 = target: T1, hCMKLR1 (Homo sapiens, UniProt Q99788); experiment: Calcium flux assay in COS-7 cells transfected with hCMKLR1_eYFP_GαΔ6qi4myr
T1 sequence (Q99788 1-373): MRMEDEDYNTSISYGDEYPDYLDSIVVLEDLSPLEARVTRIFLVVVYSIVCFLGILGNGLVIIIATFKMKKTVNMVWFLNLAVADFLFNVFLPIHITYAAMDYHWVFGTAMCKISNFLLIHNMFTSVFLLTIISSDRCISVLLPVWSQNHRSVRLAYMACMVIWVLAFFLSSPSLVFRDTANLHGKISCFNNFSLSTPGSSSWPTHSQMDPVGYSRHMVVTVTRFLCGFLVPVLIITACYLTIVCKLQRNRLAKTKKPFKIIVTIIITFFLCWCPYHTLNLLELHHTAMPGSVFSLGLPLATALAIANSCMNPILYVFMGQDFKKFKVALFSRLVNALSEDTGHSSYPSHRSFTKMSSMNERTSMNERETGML
Experimental: COS-7 cells were transfected in 75 cm^2 cell culture flasks with 12 µg of the hCMKLR1_eYFP_GαΔ6qi4myr_pV2 plasmid overnight using Metafectene Pro. Transfected cells were seeded in 96 well plates (100 µL cell suspension in DMEM + 10%FBS/well) and incubated overnight. […] All experiments were performed in triplicates, each experiment was repeated at least twice. Nonlinear regression was calculated using GraphPad Prism 5.

[2] = tested on: HEK293 cells transiently transfected with CMKLR1-eYFP; experiment: Live cell fluorescence microscopy of peptide uptake; assay type: cell-based; conditions: 1 µM Tam-labeled peptide, 60 min
Experimental: For fluorescence microscopy, HEK293 cells were seeded into Ibidi 15 µ-slides (140,000 cells/200 µL/well) coated with poly D-lysine and grown overnight. Next, cells were transfected with 900 ng CMKLR1-eYFP. Transfection was achieved using Lipofectamine 2000 according to the manufacturer’s protocol. One day post-transfection, fluorescence microscopy experiments were performed on an AxioVision Observer.Z1 microscope equipped with an ApoTome imaging system (Zeiss, Jena, Germany). […] To observe peptide uptake, cells were stimulated with 1 µM Tam-chemerin-9 in OptiMEM, which was replaced with acidic wash (50 mM glycine, 100 mM NaCl, pH 3) in HBSS after the indicated time, followed by two washing steps with OptiMEM. Microscopy was carried out in OptiMEM.

[3] = tested on: HEK293 cells stably transfected with CMKLR1-eYFP; experiment: Quantification of peptide uptake using a High Content Imager; assay type: cell-based; conditions: 1 µM Tam-labeled peptide, up to 1 h
Experimental: Cells were stimulated with 1 µM of the respective, Tam-labeled peptide for the specified periods, followed by washing with acidic wash (50 mM glycine, 100 mM NaCl, pH 3) in HBSS. Microscopy was carried out in OptiMEM using an ImageXpress Micro Confocal High-Content Imaging System (Molecular Devices, San José, CA, USA), using the appropriate filters for the respective fluorophores (Table 1). The fluorescence intensity per cell was automatically analyzed for each well by a module detecting the nuclei (5–30 µm in diameter and 100 gray levels above background) and the granules by Tam-peptide fluorescence (2–5 µm in diameter, 70 gray levels above background).

[4] = tested on: HEK293 cells stably transfected with CMKLR1-eYFP; experiment: Resazurin-based cell viability assay, HEK293-CMKLR1; conditions: HEK293-CMKLR1
Experimental: (§1) HEK293 cells stably transfected with CMKLR1-eYFP, empty HEK293 cells (15,000 cells in 100 µL suspension/well), or HMEC-1 cells (5000 cells in 100 µL suspension/well) in their respective cell culture media were seeded in 96 well plates (coated with poly D-lysine for HEK cells) and incubated at standard conditions overnight. Afterward, cells were incubated with peptides or MTX dissolved in cell culture media, and a medium without peptides was used as a control. […] Ethanol or media was removed and a 50 µL resazurin-based in vitro toxicology assay kit (Sigma-Aldrich, St. Lous, MO, USA) in cell culture media (1:10) was added to each well. After 1 h incubation time, the conversion of the resazurin was detected by measuring the fluorescence intensity at λem = 590 nm. All experiments were performed in duplicates and each experiment was repeated at least three times. Nonlinear regression was calculated using GraphPad Prism 5, curves were normalized to untreated and ethanol-treated cells.

[5] = tested on: untransfected HEK293 cells; experiment: Resazurin-based cell viability assay, untransfected HEK293; conditions: HEK293 cells devoid of CMKLR1, 72 h
Experimental: as §1

human blood plasma = conditions: 37 °C, up to 24 h
[6] = target: chemokine-like receptor 1 fused to eYFP (hCMKLR1-eYFP) (human) (UniProt Q99788)
[7] = target: chemokine-like receptor 1 fused to eYFP (hCMKLR1-eYFP) (human) (UniProt Q99788); remark: listed apart in the source
[8] = EC50, Ca^2+ flux, normalized to chemerin-9 curve

CN(C)c1ccc2c(c1)Oc1cc(N(C)C)ccc1C21OC(=O)c2ccc(C(=O)N[C@@H](Cc3ccc(O)cc3)C(=O)N[C@@H](Cc3ccccc3)C(=O)N3CCC[C@H]3C(=O)N[C@@H]3CSSC[C@@H](C(=O)N[C@@H](Cc4ccccc4)C(=O)N[C@@H](CO)C(=O)O)NC(=O)[C@H](Cc4ccccc4)NC(=O)[C@H](CCC(N)=O)NC3=O)cc21 [Compound 2T, Tam-YFP(cQFCFS)] (X1-YFP[dC]QFCFS-OH; disulfide 4-7)
half-life [1]: 0.75 h

CN(C)c1ccc2c(c1)Oc1cc(N(C)C)ccc1C21OC(=O)c2ccc(C(=O)N[C@@H](Cc3ccc(O)cc3)C(=O)N[C@@H](Cc3ccccc3)C(=O)N3CCC[C@H]3C(=O)N[C@@H]3CSCSC[C@@H](C(=O)N[C@@H](Cc4ccccc4)C(=O)N[C@@H](CO)C(=O)O)NC(=O)[C@H](Cc4ccccc4)NC(=O)[C@H](CCC(N)=O)NC3=O)cc21 [Compound 3T, Tam-YFP(c(CH2)QFCFS)] (X1-YFP[dC]QFCFS-OH; linker 4-7 via CH2)
half-life [1]: 0.3 h

C[C@@H]1NC(=O)[C@H](Cc2ccccc2)NC(=O)[C@H](CCC(N)=O)NC(=O)[C@H](NC(=O)[C@@H]2CCCN2C(=O)[C@H](Cc2ccccc2)NC(=O)[C@@H](N)Cc2ccc(O)cc2)CSSC[C@@H](C(=O)O)NC(=O)[C@H](Cc2ccccc2)NC1=O [Compound 4, YFP(cQFAFC)] (H-YFP[dC]QFAFC-OH; disulfide 4-9)
EC50 (hCMKLR1; pEC50 ± SEM, Ca^2+ flux): 64.3 nM

C[C@@H]1NC(=O)[C@H](Cc2ccccc2)NC(=O)[C@H](CCC(N)=O)NC(=O)[C@H](NC(=O)[C@@H]2CCCN2C(=O)[C@H](Cc2ccccc2)NC(=O)[C@H](Cc2ccc(O)cc2)NC(=O)c2ccc3c(c2)C2(OC3=O)c3ccc(N(C)C)cc3Oc3cc(N(C)C)ccc32)CSSC[C@@H](C(=O)O)NC(=O)[C@H](Cc2ccccc2)NC1=O [Compound 4T, Tam-YFP(cQFAFC)] (X1-YFP[dC]QFAFC-OH; disulfide 4-9)
half-life [1]: > 24 h

C[C@@H]1NC(=O)[C@H](Cc2ccccc2)NC(=O)[C@H](CCC(N)=O)NC(=O)[C@H](NC(=O)[C@@H]2CCCN2C(=O)[C@H](Cc2ccccc2)NC(=O)[C@@H](N)Cc2ccc(O)cc2)CSCSC[C@@H](C(=O)O)NC(=O)[C@H](Cc2ccccc2)NC1=O [Compound 5, YFP(c(CH2)QFAFC)] (H-YFP[dC]QFAFC-OH; linker 4-9 via CH2)
EC50 (hCMKLR1; [8]): 13 nM | EC50 (hCMKLR1; pEC50 ± SEM, Ca^2+ flux): 12.9 nM

C[C@@H]1NC(=O)[C@H](Cc2ccccc2)NC(=O)[C@H](CCC(N)=O)NC(=O)[C@H](NC(=O)[C@@H]2CCCN2C(=O)[C@H](Cc2ccccc2)NC(=O)[C@H](Cc2ccc(O)cc2)NC(=O)c2ccc3c(c2)C2(OC3=O)c3ccc(N(C)C)cc3Oc3cc(N(C)C)ccc32)CSCSC[C@@H](C(=O)O)NC(=O)[C@H](Cc2ccccc2)NC1=O [Compound 5T, Tam-YFP(c(CH2)QFAFC)] (X1-YFP[dC]QFAFC-OH; linker 4-9 via CH2)
half-life [1]: > 24 h

C[C@@H]1NC(=O)[C@H](Cc2ccccc2)NC(=O)[C@H](CCC(N)=O)NC(=O)[C@H](NC(=O)[C@@H]2CCCN2C(=O)[C@H](Cc2ccccc2)NC(=O)[C@@H](N)Cc2ccc(O)cc2)CSCSCC[C@@H](C(=O)O)NC(=O)[C@H](Cc2ccccc2)NC1=O [Compound 6, YFP(c(CH2)QFAFX)] (H-YFP[dC]QFAF[hCys]-OH; linker 4-9 via CH2)
EC50 (hCMKLR1; [8]): 37 nM | EC50 (hCMKLR1; pEC50 ± SEM, Ca^2+ flux): 37.2 nM

C[C@@H]1NC(=O)[C@H](Cc2ccccc2)NC(=O)[C@H](CCC(N)=O)NC(=O)[C@H](NC(=O)[C@@H]2CCCN2C(=O)[C@H](Cc2ccccc2)NC(=O)[C@H](Cc2ccc(O)cc2)NC(=O)c2ccc3c(c2)C2(OC3=O)c3ccc(N(C)C)cc3Oc3cc(N(C)C)ccc32)CSCSCC[C@@H](C(=O)O)NC(=O)[C@H](Cc2ccccc2)NC1=O [Compound 6T, Tam-YFP(c(CH2)QFAFX)] (X1-YFP[dC]QFAF[hCys]-OH; linker 4-9 via CH2)
half-life [1]: > 24 h

CN(C)c1ccc2c(c1)Oc1cc(N(C)C)ccc1C21OC(=O)c2ccc(C(=O)NCCCC[C@@H]3NC(=O)[C@H](Cc4ccccc4)NC(=O)[C@H](CCC(N)=O)NC(=O)[C@H](NC(=O)[C@@H]4CCCN4C(=O)[C@H](Cc4ccccc4)NC(=O)[C@@H](N)Cc4ccc(O)cc4)CSSC[C@@H](C(=O)O)NC(=O)[C@H](Cc4ccccc4)NC3=O)cc21 [Compound 7T, YFP(cQFK(Tam)FC)] (H-YFP[dC]QFK(X1)FC-OH; disulfide 4-9)
half-life [1]: < 0.2 h

CN(C)c1ccc2c(c1)Oc1cc(N(C)C)ccc1C21OC(=O)c2ccc(C(=O)NCCCC[C@@H]3NC(=O)[C@H](Cc4ccccc4)NC(=O)[C@H](CCC(N)=O)NC(=O)[C@H](NC(=O)[C@@H]4CCCN4C(=O)[C@H](Cc4ccccc4)NC(=O)[C@H](N)Cc4ccc(O)cc4)CSSC[C@@H](C(=O)O)NC(=O)[C@H](Cc4ccccc4)NC3=O)cc21 [Compound 8T, yFP(cQFK(Tam)FC)] (H-[dY]FP[dC]QFK(X1)FC-OH; disulfide 4-9)
half-life [1]: > 24 h

C[C@@H]1NC(=O)[C@H](Cc2ccccc2)NC(=O)[C@H](CCC(N)=O)NC(=O)[C@H](NC(=O)[C@@H]2CCCN2C(=O)[C@H](Cc2ccccc2)NC(=O)[C@H](N)Cc2ccc(O)cc2)CSCSCC[C@@H](C(=O)O)NC(=O)[C@H](Cc2ccccc2)NC1=O [Compound 10, yFP(c(CH2)QFAFX)] (H-[dY]FP[dC]QFAF[hCys]-OH; linker 4-9 via CH2)
EC50 (hCMKLR1; [8]): 28 nM | EC50 (hCMKLR1; pEC50 ± SEM, Ca^2+ flux): 28 nM

C[C@@H]1NC(=O)[C@H](Cc2ccccc2)NC(=O)[C@H](CCC(N)=O)NC(=O)[C@H](NC(=O)[C@@H]2CCCN2C(=O)[C@H](Cc2ccccc2)NC(=O)[C@H](Cc2ccc(O)cc2)NC(=O)CCOCCOCCOCCOCCNC(=O)c2ccc3c(c2)C2(OC3=O)c3ccc(N(C)C)cc3Oc3cc(N(C)C)ccc32)CCSSC[C@@H](C(=O)O)NC(=O)[C@H](Cc2ccccc2)NC1=O [Compound 12T, Tam-EG(4)-YFP(xQFAFC)] ({X1-PEG4}-YFP[d(hCys)]QFAFC-OH; disulfide 4-9)
half-life [1]: > 48 h | intracellular Tam-fluorescence (peptide uptake) [2]: pronounced intracellular fluorescence is visible after 60 min of stimulation | intracellular accumulation of Tam-fluorescence over time [3]: comparable intracellular accumulation over time

Mtx-GFLGK(Ac)YFP(xQFAFC) [Compound 15]
increase in toxicity compared to MTX itself [4]: almost eightfold increase in toxicity | toxicity (in words) [5]: exerted no toxicity; also recorded: not toxic at concentrations up to 10 µM

Tam-EG(4)-YFP(xQFAFC)
not cleaved (human blood plasma): not degraded in blood plasma for at least 24 h; t1/2 >48 h

Tam-EG(4)-YFPGQFAAS ({Tam-EG(4)}-YFPGQFAAS) [Compound 13T, alanine-substituted Tam-labeled linear peptide, negative control]
intracellular accumulation of Tam-fluorescence over time [3]: did not accumulate in the cells

Tam-YFP(c(CH2)QFAFC)
not cleaved (human blood plasma): same stability for 24 h; t1/2 >24 h

Tam-YFP(c(CH2)QFAFX)
not cleaved (human blood plasma): same stability for 24 h; t1/2 >24 h

Tam-YFP(cQFAFC) (X1-YFP[dC]QFAFC-OH; disulfide 4-9)
not cleaved (human blood plasma): remained completely intact for the course of the experiment (24 h); t1/2 >24 h

methotrexate conjugate 15, Mtx-GFLGK(Ac)YFP(xQFAFC) (peptide)
toxicity in a resazurin-based cell viability assay, HEK293 cells stably transfected with CMKLR1-eYFP, 72 h, IC50 (no toxicity on HEK293 cells devoid of CMKLR1 up to 10 µM) [6]: 61 nM | toxicity in a resazurin-based cell viability assay, HMEC-1 cells endogenously expressing CMKLR1, 72 h, IC50 [7]: 2000 nM

yFP(cQFK(Tam)FC)
not cleaved (human blood plasma): fully stable in blood plasma for 24 h; t1/2 >24 h
